Article PMC11483378, “Triazole-Based Thiamine Analogues as Inhibitors of Thiamine Pyrophosphate-Dependent Enzymes: 1,3-Dicarboxylate for Metal Binding” (ACS Omega, 2024)
Where “and” joins values, the source holds several entries; their conditions need not be identical. Identical values can stand only once. Like-named read-outs stand apart in the source and are kept apart here.

Tests used:
A. viridans PO = A. viridans PO (Aerococcus viridans, UniProt A9X9K8); assay: A. viridans PO inhibitory activity assay (quinoneimine dye); format: biochemical
Experimental: A. viridans PO and horseradish peroxidase were purchased from Sigma. A. viridans PO activity was determined by monitoring appearance of quinoneimine dye at 550 nm using a microplate reader (CLARIOstar) and conducted as described[5] with some modifications. […] The reaction buffer (50 mM KH2PO4 and 10 mM MgCl2, pH 5.9) contained TPP at specified concentrations, 10 μM flavin adenine dinucleotide, 0.15% 4-aminoantipyrine, 0.3% N-ethyl-N-(2-hydroxy-3-sulfopropyl)-m-toluidine (EHSPT), 50 μg/mL horseradish peroxidase, and 0.35 U/mL A. viridans PO. The reaction mixture was preincubated at 37 °C with inhibitor for 30 min, and then the reaction was initiated by adding pyruvate to a final concentration of 50 mM. To determine the IC50, TPP concentration was set at 60 μM with varying inhibitor concentrations. One unit of PO activity is defined as the production of 1 μmol of hydrogen peroxide per minute. The IC50 values were calculated from nonlinear regression curve fitting using GraphPad Prism.
(§1) Enzyme inhibitory activity assays – methods and results (Figures S1-4) […]
(§2) The compound […]
A. viridans PO inhibitory activity assay. A. viridans PO and horseradish peroxidase were purchased from Sigma. A. viridans PO activity was determined by monitoring appearance of quinoneimine dye at 550 nm using a microplate reader (CLARIOstar) and conducted as described3 with some modifications. […]
buffer (50 mM KH2PO4 and 10 mM MgCl2, pH 5.9) contained TPP at specified concentrations, 10 µM flavin adenine dinucleotide (FAD), 0.15% 4-aminoantipyrine, 0.3% N-ethyl-N-(2-hydroxy-3-sulfopropyl)-m-toluidine (EHSPT), 50 µg/mL horseradish peroxidase and 0.35 U/mL A. viridans PO. The reaction mixture was preincubated at 37 °C with inhibitor for 30 min, then reaction was initiated by adding pyruvate to a final concentration of 50 mM. To determine the IC50, TPP concentration was set was set at 60 µM with varying inhibitor concentrations. One unit of PO activity is defined as the production of 1 μmol of hydrogen peroxide per minute. The IC 50 values were calculated from non-linear regression curve fitting using GraphPad Prism. […]

S. cerevisiae PDC = biological target: T1, S. cerevisiae PDC (Saccharomyces cerevisiae, UniProt P06169); assay: S. cerevisiae PDC inhibitory activity assay (DCPIP reduction); format: biochemical; details: for % Inhibition (5:1): [Compound] = 750 μM, [TPP] = 150 μM; for inhibition at 750 µM: [Compound] = [TPP] = 750 μM, read-out: % Inhibition (1:1)
T1 construct: purchased Sigma
T1 sequence (P06169 2-563 limits assumed): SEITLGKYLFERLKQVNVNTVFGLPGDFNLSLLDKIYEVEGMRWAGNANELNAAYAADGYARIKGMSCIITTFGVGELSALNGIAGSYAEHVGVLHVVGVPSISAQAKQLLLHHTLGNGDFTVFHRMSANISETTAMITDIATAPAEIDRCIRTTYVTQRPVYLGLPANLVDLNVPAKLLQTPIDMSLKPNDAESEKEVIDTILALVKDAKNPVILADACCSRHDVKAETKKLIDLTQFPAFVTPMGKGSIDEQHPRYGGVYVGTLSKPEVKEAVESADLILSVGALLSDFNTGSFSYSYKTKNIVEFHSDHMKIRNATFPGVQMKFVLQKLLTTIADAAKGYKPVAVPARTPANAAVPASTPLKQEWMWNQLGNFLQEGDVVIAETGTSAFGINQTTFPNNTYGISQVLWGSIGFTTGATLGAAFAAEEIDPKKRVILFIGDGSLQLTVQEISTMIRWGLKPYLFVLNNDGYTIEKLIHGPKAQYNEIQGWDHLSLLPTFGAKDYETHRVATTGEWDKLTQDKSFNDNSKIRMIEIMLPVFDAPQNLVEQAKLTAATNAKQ
Experimental: S. cerevisiae PDC was purchased from Sigma. S. cerevisiae PDC activity was determined by monitoring DCPIP reduction at 600 nm using a microplate reader (CLARIOstar) and conducted as described[5] with some modifications. […] The reaction buffer (50 mM KH2PO4 and 1 mM MgCl2, pH 7) contained TPP at specified concentrations, 0.27 mM DCPIP, and 0.15 mg/mL S. cerevisiae PDC. The reaction mixture was preincubated at 37 °C with the inhibitor for 60 min, and then the reaction was initiated by adding pyruvate to a final concentration of 70 mM. […] Specific activity was calculated using the molar extinction coefficient of DCPIP, 21 mM^–1 cm^–1.[28] The IC50 values were calculated from nonlinear regression curve fitting using GraphPad Prism.
as §1, §2
S. cerevisiae PDC inhibitory activity assay. S. cerevisiae PDC was purchased from Sigma. S. cerevisiae PDC activity was determined by monitoring DCPIP reduction at 600 nm using a microplate reader (CLARIOstar) and conducted as described3 with some modifications. The percentage inhibition of compounds against S. cerevisiae PDC was assayed at 750 μM. The reaction buffer (50 mM KH 2PO4 and 1 mM MgCl2, pH 7) contained TPP at specified concentrations, 0.27 mM DCPIP, and 0.15 mg/ml S. cerevisiae PDC. The reaction mixture was preincubated at 37 °C with the inhibitor for 60 min, then reaction was initiated by adding pyruvate to a final concentration of 70 mM. To determine the IC50, TPP concentration was set at 150 µM with varying inhibitor concentrations. Specific activity was […]
calculated from non-linear regression curve fitting using GraphPad Prism. […]

porcine liver esterase = assay: Esterase treatment with UPLC-HRMS analysis; format: in vitro ADME
Experimental: Esters 13b and 15b were subjected to esterase treatment (porcine liver esterase) at 37 °C and pH 7.4 for 2 h, and then the reaction mixtures were analyzed using UPLC-HRMS (Figure 4).[24] The molecular mass of the new products formed was determined by MS and confirmed that they were the expected carboxylic acids. […] The second hydrolysis is presumably slower because the substrate 17 is anionic, whereas for the first hydrolysis, the substrate 13b is neutral.[19],[25],[26] When 13b enters a cell through passive diffusion, the intracellular esterases will begin to hydrolyze the ester groups to give first 17 and then 14b. Since both 17 and 14b are negatively charged under physiological conditions, they will be unable to diffuse back out of the cell and so should accumulate there.[27] Diester 13b is more hydrophobic than triazole hydroxamate 4 (c Log D: 0.8 vs −0.5) and so should diffuse into cells more readily. […] Thus, we anticipate that 13b will be as useful as 4 in probing the role of vitamin B1 in cells.
Figure 4 UPLC-HRMS analysis of the esterase treatment. […] Compound (retention time/min): diester 13b (1.30), dicarboxylate 14b (0.51), monoester 15b (0.99), monocarboxylate 16b (0.51), and intermediate 17 (0.67).

[1] = [Compound] = 250 μM, [TPP] = 50 μM
[2] = [Compound] = [TPP] = 250 μM; read-out: % Inhibition (1:1)
[3] = calculated from KM(TPP) 5 µM using [TPP]/IC50 = KM(TPP)/KI
[4] = read-out: IC50 (μM ± SEM); [TPP] = 60 µM
[5] = calculated from KM(TPP) 15 µM using [TPP]/IC50 = KM(TPP)/KI
[6] = read-out: IC50 (μM ± SEM), [TPP] = 150 µM
[7] = [TPP] = 60 µM; read-out: IC50 (μM ± SEM)
[8] = calculated from KM(TPP) 5 µM using [TPP]/IC50 = KM(TPP)/KI; read-out: KI

Sequence of A. viridans PO (A9X9K8 entry or part of it): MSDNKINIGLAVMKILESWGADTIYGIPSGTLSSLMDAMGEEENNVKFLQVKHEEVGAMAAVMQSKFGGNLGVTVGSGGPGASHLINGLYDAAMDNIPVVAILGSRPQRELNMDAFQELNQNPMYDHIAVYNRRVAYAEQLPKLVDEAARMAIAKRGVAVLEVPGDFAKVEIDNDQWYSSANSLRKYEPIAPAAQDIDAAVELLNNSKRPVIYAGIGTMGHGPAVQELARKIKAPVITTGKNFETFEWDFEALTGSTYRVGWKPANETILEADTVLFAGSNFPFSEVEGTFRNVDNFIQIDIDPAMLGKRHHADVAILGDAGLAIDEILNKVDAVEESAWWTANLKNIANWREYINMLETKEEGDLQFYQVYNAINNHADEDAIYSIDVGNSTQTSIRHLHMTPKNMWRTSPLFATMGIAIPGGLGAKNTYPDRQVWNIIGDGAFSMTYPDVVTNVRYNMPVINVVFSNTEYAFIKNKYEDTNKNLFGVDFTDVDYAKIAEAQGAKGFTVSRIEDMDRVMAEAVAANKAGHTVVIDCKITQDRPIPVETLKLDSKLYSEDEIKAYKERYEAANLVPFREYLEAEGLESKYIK

Row | SMILES | % Inhibition (5:1) (A. viridans PO; [1]) [%] | inhibition at 250 µM (A. viridans PO; [2]) [%] | vs TPP: affinity of the compound relative to that of TPP (= [TPP]/IC50) (A. viridans PO; [TPP] = 60 µM) | Ki (A. viridans PO; [3]) [µM] | IC50 (A. viridans PO; [4]) [µM] | % Inhibition (5:1) (S. cerevisiae PDC) [%] | inhibition at 750 µM (S. cerevisiae PDC) [%] | vs TPP: affinity of the compound relative to that of TPP (= [TPP]/IC50) (S. cerevisiae PDC; [TPP] = 150 µM) | Ki (S. cerevisiae PDC; [5]) [µM] | IC50 (S. cerevisiae PDC; [6]) [µM] | outcome of esterase treatment (porcine liver esterase; 37 °C, pH 7.4, 2 h) | outcome of esterase treatment (porcine liver esterase; after 24 h) | IC50 (A. viridans PO; [7]) [µM] | Ki (A. viridans PO; [8]) [µM] | IC50 (S. cerevisiae PDC) [µM] | Ki (S. cerevisiae PDC) [µM]
1 | Cc1ncc(Cn2cc(CCCCC(=O)[O-])nn2)c(N)n1.[K+] [16b] | 63 ± 3 | 28 ± 4 | 0.35 | 14 | 171 ± 29 | 60 ± 4 | 25 ± 5 | 0.30 | 50 | 503 ± 76 |  |  |  |  |  | 
2 | COC(=O)C(CCCc1cn(Cc2cnc(C)nc2N)nn1)C(=O)OC [13b] | 65 ± 5 | 29 ± 4 | 0.39 |  |  | 52 ± 3 | 21 ± 5 | 0.21 |  |  | the major product was monoester monocarboxylate 17 | the only product seen was dicarboxylate 14b | 152 ± 24 | 13 | 713 ± 139 | 71
3 | COC(=O)CCCc1cn(Cc2cnc(C)nc2N)nn1 [15a] | 52 ± 3 | 21 ± 4 | 0.22 |  |  | 42 ± 3 | < 20 | 0.17 |  |  |  |  | 274 ± 52 | 23 | 883 ± 144 | 88
4 | COC(=O)C(CCc1cn(Cc2cnc(C)nc2N)nn1)C(=O)OC [13a] | 62 ± 4 | 26 ± 4 | 0.32 |  |  | 40 ± 4 | < 20 | 0.16 |  |  |  |  | 189 ± 44 | 16 | 939 ± 167 | 94
5 | COC(=O)CCCCc1cn(Cc2cnc(C)nc2N)nn1 [15b] | 59 ± 3 | 24 ± 4 | 0.28 |  |  | 47 ± 4 | < 20 | 0.19 |  |  | completely hydrolyzed into monocarboxylate 16b |  | 214 ± 31 | 18 | 789 ± 167 | 79
6 | Cc1ncc(Cn2cc(CCCC(C(=O)[O-])C(=O)[O-])nn2)c(N)n1.[K+].[K+] [14b] | 85 ± 4 | 55 ± 4 | 1.22 | 4.1 | 49 ± 7 | 79 ± 3 | 42 ± 3 | 0.7 and 0.71 | 21 | 211 ± 39 |  |  |  |  |  | 
7 | Cc1ncc(Cn2cc(CCC(C(=O)[O-])C(=O)[O-])nn2)c(N)n1.[K+].[K+] [14a] | 76 ± 3 | 41 ± 3 | 0.69 | 7.3 | 87 ± 11 | 70 ± 2 | 31 ± 3 | 0.47 | 32 | 319 ± 57 |  |  |  |  |  | 
8 | Cc1ncc(Cn2cc(CCCC(=O)[O-])nn2)c(N)n1.[K+] [16a] | 59 ± 3 | 22 ± 5 | 0.30 | 17 | 202 ± 34 | 55 ± 4 | 24 ± 4 | 0.26 | 58 | 582 ± 88 |  |  |  |  |  | 
